# Patent US10238633B2, “Methods for treating pulmonary emphysema using substituted 2-Aza-bicyclo[2.2.1]heptane-3-carboxylic acid (benzyl-cyano-methyl)-amides inhibitors of Cathepsin C” (Boehringer Ingelheim International GmbH, priority 2013, dated 2019)
# Test system: Neutrophil elastase activity in U937 cells
# Assay: Determination of neutrophil elastase activity in U937 cytosolic lysate preparation after incubation with test compound
# Format: cell-based
# Conditions: Homo sapiens, U-937, read-out: Reduction of NE-activity in U937 cells IC50
# Method: Determination of Neutrophil Elastase Activity in U937 Cytosolic Lysate Preparation after Incubation with Test Compound
# Optiplate 384F were purchased from PerkinElmer (Prod. No. #6007270). 24 well Nunclon cell culture plates (No. 142475) and 96 well plates (No. 267245) were from Nunc. Dimethylsulfoxid (DMSO) was from Sigma (Prod. No. D8418). Nonidet-P40 (NP40) was from USBiological (Prod. No. N3500)
# Substrate, specific for Neutrophil elastase, was from Bachem (MeOSuc-Ala-Ala-Pro-Val-AMC; Prod. No. 1-1270).
# Human neutrophil elastase was from Calbiochem (Prod. No. 324681)
# Tris-buffer (100 mM Tris; 1M NaCL; pH 7.5)
# Tris-buffer+HSA 0.1%; Human Serum Albumin from Calbiochem (Cat#. 126658)
# Serine-protease buffer (20 mM Tris; 100 mM NaCL; pH 7.5)+0.1% HSA
# Serine protease lysis buffer: 20 mM Tris-HCL; 100 mM NaCl pH 7.5; +0.2% Nonidet-P40;
# PBS: phosphate buffered saline, without Ca and Mg, from Gibco
# U937 from ECACC (Cat. No. 85011440) cultured in suspension at 37° C. and 5% CO2.
# Cell density: 0.2-1 Mio. Cells/ml.
# Medium: RPMI1640 GlutaMAX (No. 61870) with 10% FCS from Gibco
# Cell Seeding and Treatment:
# Compounds in 100% DMSO were diluted in Medium (—FCS) with 10% DMSO and further diluted according to the experiment planned.
# 20 μl of the compound solution was transferred in the respective wells of the 24 well plate and diluted with 2 ml cell suspension/well containing […] (final concentration of DMSO=0.1%). Compound dilution factor=100
# Compounds (up to 7 concentrations) were tested in triplicates with 3 wells for the DMSO 0.1% control, incubated for 48 hours without medium change at 37° C., 5% CO2 and 95% relative humidity.
# Cell Harvesting and Cell Lysate:
# Transfer the cell suspension in 2.2 ml Eppendorf cups. Separate cells from medium by centrifugation (400×g; 5 min; RT); discard the supernatant. Resuspend in 1 ml PBS; centrifugation (400×g; 5 min; RT); wash cells twice with PBS. Add 100 μl Serin lysis buffer (ice cold) to the cell pellet; resuspend the pellet and store on ice for 15 minutes. Remove debris by centrifugation at 15000×g for 10 min at 4° C. Transfer 80-100 μl lysate supernatant in 96 well plate and store immediately at −80° C.
# Neutrophil Elastase Activity Assay:
# Frozen lysates were thawn at 37° C. for 10 minutes and stored on ice. Protein content was determined with Bradford protein assay. Lysates were diluted to 0.2-0.5 mg/ml protein in serine protease buffer+HSA.
# Standard: NE (100 μg/ml stock solution in Tris-buffer; stored at −80° C.) was diluted in Tris-buffer+HSA to 750 ng/ml, and further serially diluted 1:2 for the standard curve.
# Buffer, blank, standard and lysate samples were transferred into 384 well plate
# Blank: 5 μl Tris-buffer+10 μl Tris-buffer+HSA+5 μl Substrate
# Standard: 5 μl Tris-buffer+10 μl NE (diff. conc.)+5 μl Substrate
# Lysate: 5 μl Tris-buffer+10 μl Lysat+[…] Substrate
# The increase in fluorescence (Ex360 nm/Em 460 nm) is determined over 30 minutes with a Molecular Device Spectramax M5 Fluorescence Reader. Kinetic Reduction (Vmax units/sec); 4 vmax points. The amount of neutrophil elastase (ng/ml) is calculated using the standard curve and the Spectramax software. The result is interpolated to ng/mg lysate protein using excel formula functions. […] IC50 is calculated using Graphpad Prism; nonlinear fitting (log(inhibitor) vs. response—Variable slope).
row,SMILES,IC50 [nM]
1,N#C[C@H](Cc1ccc(N2CCCN3CCCC3C2)cc1F)NC(=O)[C@H]1N[C@@H]2CC[C@H]1C2 (stereo partly shown) [Example 271],1.7
2,N#C[C@H](Cc1ccc(N2C3CCC2CN(C2CCOC2)C3)cc1F)NC(=O)[C@H]1N[C@@H]2CC[C@H]1C2 (stereo partly shown) [Example 329],2.5
3,CN1CC2(C1)CN(c1ccc(C[C@@H](C#N)NC(=O)[C@H]3N[C@@H]4CC[C@H]3C4)c(F)c1)C2 [Example 330],37.7
4,N#C[C@H](Cc1ccc(N2CCN(C3CCOC3)CC2)cc1F)NC(=O)[C@H]1N[C@@H]2CC[C@H]1C2 (stereo partly shown) [Example 331],6
5,N#C[C@H](Cc1ccc(C2=CCN(C3CCOC3)CC2)cc1F)NC(=O)[C@H]1N[C@@H]2CC[C@H]1C2 (stereo partly shown) [Example 332],5.8
6,CN1C2CCC1CN(c1ccc(C[C@@H](C#N)NC(=O)[C@H]3N[C@@H]4CC[C@H]3C4)c(F)c1)C2 [Example 333],4.7
7,CN1CCN(S(=O)(=O)c2cc(-c3ccc(C[C@@H](C#N)NC(=O)[C@H]4N[C@@H]5CC[C@H]4C5)c(F)c3)ccc2F)CC1 [Example 339],0.6
8,CN1CCCN(S(=O)(=O)c2ccc(-c3ccc(C[C@@H](C#N)NC(=O)[C@H]4N[C@@H]5CC[C@H]4C5)c(F)c3)cc2)CC1 [Example 340],0.8
9,CN(C)CCn1cc(-c2ccc(C[C@@H](C#N)NC(=O)[C@H]3N[C@@H]4CC[C@H]3C4)c(F)c2)ccc1=O [Example 342],24.7
10,N#C[C@H](Cc1ccc(-c2ccc(=O)n(CC(F)F)c2)cc1F)NC(=O)[C@H]1N[C@@H]2CC[C@H]1C2 [Example 343],16.9
11,"CN(C)C1CCCN(c2ccc(C[C@@H](C#N)NC(=O)[C@H]3N[C@@H]4CC[C@H]3C4)c(F)c2)C1 (stereo partly drawn) [Example 344, (1S,2S,4R)—N-[(1S)-1-cyano-2-[4-[3-(dimethylamino)-1-piperidyl]-2-fluoro-phenyl]ethyl]-3-azabicyclo[2.2.1]heptane-2-carboxamide]",4.1
12,CN(C)CC1CCCN(c2ccc(C[C@@H](C#N)NC(=O)[C@H]3N[C@@H]4CC[C@H]3C4)c(F)c2)C1 (stereo partly shown) [Example 345],6.9
13,CN1CCC(N2C(=O)Cc3ccc(-c4ccc(C[C@@H](C#N)NC(=O)[C@H]5N[C@@H]6CC[C@H]5C6)c(F)c4)cc32)CC1 [Example 346],6.8
14,N#C[C@H](Cc1ccc(N2CC3CCN(C4CCOC4)C3C2)cc1F)NC(=O)[C@H]1N[C@@H]2CC[C@H]1C2 (stereo partly shown) [Example 348],2
15,CN1CCC2CN(c3ccc(C[C@@H](C#N)NC(=O)[C@H]4N[C@@H]5CC[C@H]4C5)c(F)c3)CC21 (stereo partly shown) [Example 349],2.8
16,CN1CCC2(CC1)CC(c1ccc(C[C@@H](C#N)NC(=O)[C@H]3N[C@@H]4CC[C@H]3C4)c(F)c1)C2 [Example 358],3.7
17,CN1CCC2(C=C(c3ccc(C[C@@H](C#N)NC(=O)[C@H]4N[C@@H]5CC[C@H]4C5)c(F)c3)C2)CC1 [Example 359],2.9

# Test system: not given
# Assay: not given
# Conditions: microsomes
row,SMILES,In vitro stability in human liver microsome incubations t½ [h]
1,N#Cc1ccc(-c2ccc(C[C@@H](C#N)NC(=O)[C@H]3N[C@H]4C[C@@H]3[C@@H]3C[C@@H]34)c(F)c2)s1 [Example 40],>2.17
2,N#C[C@H](Cc1ccc(-c2cc(C(=O)N3CCn4nccc4C3)co2)cc1F)NC(=O)[C@H]1N[C@@H]2CC[C@H]1C2 [Example 240],1.83

# Test system: not listed separately
# Assay: Determination of metabolic stability with human liver microsomes
# Conditions: pooled human liver microsomes, 37° C., test compound 1 μM, NADPH
# Method: Determination of Metabolic Stability with Human Liver Microsomes
# The metabolic degradation of the test compound is assayed at 37° C. with pooled human liver microsomes. The final incubation volume of 100 μl per time point contains TRIS buffer pH 7.6 (0.1 M), magnesium chloride (5 mM), microsomal protein (1 mg/ml) and the test compound at a final concentration of 1 μM. Following a short preincubation period at 37° C., the reactions are initiated by addition of beta-nicotinamide adenine dinucleotide phosphate, reduced form (NADPH, 1 mM) and terminated by transferring an aliquot into acetonitrile after different time points. Additionally, the NADPH-independent degradation is monitored in incubations without NADPH, terminated at the last time point. The [%] remaining test compound after NADPH independent incubation is reflected by the parameter c(control) (metabolic stability). The quenched incubations are pelleted by centrifugation (10,000 g, 5 min). An aliquot of the supernatant is assayed by LC-MS/MS for the amount of parent compound.
# The half-life (t1/2 INVITRO) is determined by the slope of the semilogarithmic plot of the concentration-time profile. The intrinsic clearance (CL_[sequence]) is calculated by considering the amount of protein in the incubation: CL_[sequence] [μl/min/mg protein]=(In 2/(half-life [min]*protein content [mg/ml]))*1,000.
row,SMILES,In vitro stability in human liver microsome incubations t½ [h]
1,CN1C(=O)Cc2ccc(-c3ccc(CC(C#N)NC(=O)[C@H]4N[C@@H]5CC[C@H]4C5)c(F)c3)cc21 (stereo partly shown) [Example 15],2.17
2,N#CC(Cc1ccc(-c2cnn(-c3ccccc3)c2)cc1F)NC(=O)[C@H]1N[C@@H]2CC[C@H]1C2 (stereo partly shown) [Example 78],2.17
3,CS(=O)(=O)c1ccc(-c2ccc(C[C@@H](C#N)NC(=O)[C@H]3N[C@@H]4CC[C@H]3C4)c(F)c2)cc1OCC(F)F [Example 252],2.17
4,N#C[C@H](Cc1ccc(N2CCCN3CCCC3C2)cc1F)NC(=O)[C@H]1N[C@@H]2CC[C@H]1C2 (stereo partly shown) [Example 271],2.17
5,CS(=O)(=O)c1cc(OCC(F)(F)F)cc(-c2ccc(C[C@@H](C#N)NC(=O)[C@H]3N[C@@H]4CC[C@H]3C4)c(F)c2)c1 [Example 276],2.17
6,N#C[C@H](Cc1ccc(N2CC3CCN(C4CCOC4)C3C2)cc1F)NC(=O)[C@H]1N[C@@H]2CC[C@H]1C2 (stereo partly shown) [Example 348],2.17
